Source: ChEMBL document CHEMBL1275354, “Anticonvulsant activity of 2,4(1H)-diarylimidazoles in mice and rats acute seizure models” (Bioorg Med Chem, 2010)
Calls of active or inactive are those of the source. No cut-off for these calls is given here.

Tests used:
Mus musculus [1] = test: Anticonvulsant activity in albino CF1 mouse assessed as protection against maximal electroshock-induced seizures at 30 mg/kg, ip after 0.5 hrs; assay type: functional, organism-based; design: dose 30 mg/kg
Mus musculus [2] = test: Anticonvulsant activity in albino CF1 mouse assessed as protection against maximal electroshock-induced seizures at 300 mg/kg, ip after 4 hrs; assay type: functional, organism-based; design: dose 300 mg/kg
Mus musculus [3] = test: Neurotoxicity in ip dosed albino CF1 mouse assessed as minimum dose required to cause toxicity after 0.5 hrs by rotarod test; assay type: organism-based; settings: in vivo
Mus musculus [4] = test: Anticonvulsant activity against maximal electroshock-induced seizures in ip dosed albino CF1 mouse assessed as minimum effective dose after 4 hrs; assay type: functional; settings: read-out: MED
Mus musculus [5] = test: Neurotoxicity in albino CF1 mouse assessed as minimal motor impairment at 30 mg/kg, ip after 4 hrs by rotarod test; assay type: toxicity, organism-based; design: dose 30 mg/kg, route intraperitoneal; settings: in vivo
Mus musculus [6] = test: Neurotoxicity in albino CF1 mouse assessed as minimal motor impairment at 30 to 300 mg/kg, po after 4 hrs by rotarod test; assay type: toxicity, organism-based; design: dose 30-300 mg/kg, route oral; settings: in vivo
Mus musculus [7] = test: Anticonvulsant activity in albino CF1 mouse assessed as protection against subcutaneous metrazole-induced seizures at 100 mg/kg, ip after 0.5 hrs; assay type: functional, organism-based; design: dose 100 mg/kg
Mus musculus [8] = test: Anticonvulsant activity in albino CF1 mouse assessed as protection against maximal electroshock-induced seizures at 100 mg/kg, ip after 2 hrs; assay type: functional, organism-based; design: dose 100 mg/kg
Mus musculus [9] = test: Anticonvulsant activity in albino CF1 mouse assessed as protection against subcutaneous metrazole-induced seizures at 30 mg/kg, ip after 0.5 hrs; assay type: functional, organism-based; design: dose 30 mg/kg
Mus musculus [10] = test: Neurotoxicity in ip dosed albino CF1 mouse assessed as minimum dose required to cause toxicity after 4 hrs by rotarod test; assay type: organism-based; settings: in vivo
Mus musculus [11] = test: Anticonvulsant activity in albino CF1 mouse assessed as protection against subcutaneous metrazole-induced seizures at 30 mg/kg, ip after 4 hrs; assay type: functional, organism-based; design: dose 30 mg/kg
Mus musculus [12] = test: Anticonvulsant activity in albino CF1 mouse assessed as protection against subcutaneous metrazole-induced seizures at 300 mg/kg, ip after 4 hrs; assay type: functional, organism-based; design: dose 300 mg/kg
Mus musculus [13] = test: Neurotoxicity in albino CF1 mouse assessed as minimal motor impairment at 100 mg/kg, ip after 0.5 hrs by rotarod test; assay type: toxicity, organism-based; design: dose 100 mg/kg, route intraperitoneal; settings: in vivo
Mus musculus [14] = test: Anticonvulsant activity against maximal electroshock-induced seizures in ip dosed albino CF1 mouse assessed as minimum effective dose after 0.5 hrs; assay type: functional; settings: read-out: MED
Mus musculus [15] = test: Anticonvulsant activity against subcutaneous metrazole-induced seizures in ip dosed albino CF1 mouse assessed as minimum effective dose after 4 hrs; assay type: functional; settings: albino CF1, 4 h, read-out: MED
Mus musculus [16] = test: Neurotoxicity in albino CF1 mouse assessed as minimal motor impairment at 30 to 300 mg/kg, ip after 0.5 hrs by rotarod test; settings: in vivo
Mus musculus [17] = test: Neurotoxicity in albino CF1 mouse assessed as minimal motor impairment at 100 mg/kg, ip after 4 hrs by rotarod test; assay type: toxicity, organism-based; design: dose 100 mg/kg, route intraperitoneal; settings: in vivo
Mus musculus [18] = test: Anticonvulsant activity against subcutaneous metrazole-induced seizures in ip dosed albino CF1 mouse assessed as minimum effective dose after 0.5 hrs; assay type: functional; settings: albino CF1, 0.5 h, read-out: MED
Mus musculus [19] = test: Anticonvulsant activity in albino CF1 mouse assessed as protection against maximal electroshock-induced seizures at 30 mg/kg, ip after 4 hrs; assay type: functional, organism-based; design: dose 30 mg/kg
Mus musculus [20] = test: Anticonvulsant activity in albino CF1 mouse assessed as protection against maximal electroshock-induced seizures at 100 mg/kg, ip after 0.5 hrs; assay type: functional, organism-based; design: dose 100 mg/kg
Mus musculus [21] = test: Anticonvulsant activity in albino CF1 mouse assessed as protection against maximal electroshock-induced seizures at 300 mg/kg, ip after 0.5 hrs; assay type: functional, organism-based; design: dose 300 mg/kg
Mus musculus [22] = test: Anticonvulsant activity in albino CF1 mouse assessed as protection against maximal electroshock-induced seizures at 100 mg/kg, ip after 4 hrs; assay type: functional, organism-based; design: dose 100 mg/kg
Mus musculus [23] = test: Neurotoxicity in albino CF1 mouse assessed as minimal motor impairment at 30 mg/kg, ip after 0.5 hrs by rotarod test; assay type: toxicity, organism-based; design: dose 30 mg/kg, route intraperitoneal; settings: in vivo
Mus musculus [24] = test: Neurotoxicity in albino CF1 mouse assessed as minimal motor impairment at 300 mg/kg, ip after 4 hrs by rotarod test; assay type: toxicity, organism-based; design: dose 300 mg/kg, route intraperitoneal; settings: in vivo
Mus musculus [25] = test: Anticonvulsant activity in albino CF1 mouse assessed as protection against subcutaneous metrazole-induced seizures at 300 mg/kg, ip after 0.5 hrs; assay type: functional, organism-based; design: dose 300 mg/kg
Mus musculus [26] = test: Anticonvulsant activity in albino CF1 mouse assessed as protection against subcutaneous metrazole-induced seizures at 100 mg/kg, ip after 4 hrs; assay type: functional, organism-based; design: dose 100 mg/kg
Rattus norvegicus [27] = test: Anticonvulsant activity in albino Sprague-Dawley rat assessed as protection against maximal electroshock-induced seizures at 30 mg/kg, po after 0.5 hrs; assay type: functional, organism-based; design: dose 30 mg/kg
Rattus norvegicus [28] = test: Anticonvulsant activity in albino Sprague-Dawley rat assessed as protection against maximal electroshock-induced seizures at 30 mg/kg, po after 1 hr; assay type: functional, organism-based; design: dose 30 mg/kg
Rattus norvegicus [29] = test: Anticonvulsant activity in albino Sprague-Dawley rat assessed as protection against maximal electroshock-induced seizures at 30 mg/kg, po after 0.25 hrs; assay type: functional, organism-based; design: dose 30 mg/kg
Rattus norvegicus [30] = test: Anticonvulsant activity in albino Sprague-Dawley rat assessed as protection against maximal electroshock-induced seizures at 30 mg/kg, po after 4 hrs; assay type: functional, organism-based; design: dose 30 mg/kg
Mus musculus [31] = test: Neurotoxicity in albino CF1 mouse assessed as minimal motor impairment at 300 mg/kg, ip after 0.5 hrs by rotarod test; assay type: toxicity, organism-based; design: dose 300 mg/kg, route intraperitoneal; settings: in vivo
Rattus norvegicus [32] = test: Anticonvulsant activity in albino Sprague-Dawley rat assessed as protection against maximal electroshock-induced seizures at 30 mg/kg, po after 2 hrs; assay type: functional, organism-based; design: dose 30 mg/kg
Rattus norvegicus [33] = test: Neurotoxicity in albino Sprague-Dawley rat assessed as minimal motor impairment at 30 mg/kg, po by rotarod test; assay type: toxicity, organism-based; design: dose 30 mg/kg, route oral; settings: in vivo

| SMILES | Activity (Mus musculus [1]) | Activity (Mus musculus [2]) | MED (Mus musculus [3]) [mg/kg] | minimal effective dose (Mus musculus [4]) [mg/kg] | Activity (Mus musculus [5]) | Activity (Mus musculus [7]) | Activity (Mus musculus [9]) | MED (Mus musculus [10]) [mg/kg] | Activity (Mus musculus [11]) | Activity (Mus musculus [12]) | Activity (Mus musculus [13]) | minimal effective dose (Mus musculus [14]) [mg/kg] | minimal effective dose (Mus musculus [15]) [mg/kg] | Activity (Mus musculus [16]) | Activity (Mus musculus [17]) | minimal effective dose (Mus musculus [18]) [mg/kg] | Activity (Mus musculus [19]) | Activity (Mus musculus [21]) | Activity (Mus musculus [23]) | Activity (Mus musculus [24]) | also measured |
| --- | --- | --- | --- | --- | --- | --- | --- | --- | --- | --- | --- | --- | --- | --- | --- | --- | --- | --- | --- | --- | --- |
| FC(F)(F)c1cccc(-c2nc(-c3ccccc3)c[nH]2)c1 | inactive | Active | 100 | 100 | Non-toxic | inactive | inactive | > 300 | inactive | inactive | Non-toxic | > 300 | > 300 | Non-toxic | Non-toxic | > 300 | inactive | inactive | Non-toxic | Non-toxic | Activity (Mus musculus [6]): Non-toxic; Activity (Mus musculus [8]): inactive; Activity (Mus musculus [20]): inactive; Activity (Mus musculus [22]): inactive; Activity (Mus musculus [25]): inactive; Activity (Mus musculus [26]): inactive |
| O=[N+]([O-])c1cccc(-c2c[nH]c(-c3ccccc3)n2)c1 | inactive | Active | > 300 | 100 | Non-toxic | inactive | inactive | > 300 | inactive | inactive | Non-toxic | 100 | > 300 | Non-toxic | Non-toxic | > 300 | inactive | Active | Non-toxic | Non-toxic | Activity (Rattus norvegicus [27]): inactive; Activity (Mus musculus [6]): Non-toxic; Activity (Rattus norvegicus [28]): inactive; Activity (Rattus norvegicus [29]): inactive; Activity (Rattus norvegicus [30]): inactive; Activity (Mus musculus [31]): Non-toxic; Activity (Mus musculus [22]): inactive; Activity (Mus musculus [25]): inactive; Activity (Rattus norvegicus [32]): inactive; Activity (Mus musculus [26]): inactive; Activity (Rattus norvegicus [33]): Non-toxic |
| COc1ccc(-c2c[nH]c(-c3ccccc3)n2)cc1 | inactive | Active | 100 | 100 | Non-toxic | inactive | inactive | 100 | inactive | inactive | Non-toxic | > 30 | > 300 | Non-toxic | Non-toxic | 100 | inactive | Active | Non-toxic | Toxic | Activity (Rattus norvegicus [27]): inactive; Activity (Rattus norvegicus [28]): inactive; Activity (Rattus norvegicus [29]): inactive; Activity (Rattus norvegicus [30]): inactive; Activity (Mus musculus [31]): Toxic; Activity (Mus musculus [20]): Active; Activity (Mus musculus [25]): Active; Activity (Rattus norvegicus [32]): inactive; Activity (Mus musculus [26]): inactive; Activity (Rattus norvegicus [33]): Non-toxic |
| O=[N+]([O-])c1cccc(-c2nc(-c3ccccc3)c[nH]2)c1 | inactive | Active | > 300 | 100 | Non-toxic | inactive | inactive | > 300 | inactive | inactive | Non-toxic | 100 | > 300 | Non-toxic | Non-toxic | > 300 | inactive | Active | Non-toxic | Non-toxic | Activity (Rattus norvegicus [27]): inactive; Activity (Mus musculus [6]): Non-toxic; Activity (Rattus norvegicus [28]): inactive; Activity (Rattus norvegicus [29]): inactive; Activity (Rattus norvegicus [30]): inactive; Activity (Mus musculus [31]): Non-toxic; Activity (Mus musculus [22]): inactive; Activity (Mus musculus [25]): inactive; Activity (Rattus norvegicus [32]): inactive; Activity (Mus musculus [26]): inactive; Activity (Rattus norvegicus [33]): Non-toxic |
